The values that follow come from patent publication US11459324B2, “O-glycoprotein-2-acetamido-2-deoxy-3-D-glycopyranosidase inhibitors” (BIOGEN MA INC., priority 2018, dated 2022).

In the assay the target is T1, Recombinant full length human OGA enzyme (Homo sapiens, UniProt O60502).
T1 construct: Recombinant full length human OGA enzyme was purchased from Origene; purchased Origene
T1 sequence (O60502 1-916): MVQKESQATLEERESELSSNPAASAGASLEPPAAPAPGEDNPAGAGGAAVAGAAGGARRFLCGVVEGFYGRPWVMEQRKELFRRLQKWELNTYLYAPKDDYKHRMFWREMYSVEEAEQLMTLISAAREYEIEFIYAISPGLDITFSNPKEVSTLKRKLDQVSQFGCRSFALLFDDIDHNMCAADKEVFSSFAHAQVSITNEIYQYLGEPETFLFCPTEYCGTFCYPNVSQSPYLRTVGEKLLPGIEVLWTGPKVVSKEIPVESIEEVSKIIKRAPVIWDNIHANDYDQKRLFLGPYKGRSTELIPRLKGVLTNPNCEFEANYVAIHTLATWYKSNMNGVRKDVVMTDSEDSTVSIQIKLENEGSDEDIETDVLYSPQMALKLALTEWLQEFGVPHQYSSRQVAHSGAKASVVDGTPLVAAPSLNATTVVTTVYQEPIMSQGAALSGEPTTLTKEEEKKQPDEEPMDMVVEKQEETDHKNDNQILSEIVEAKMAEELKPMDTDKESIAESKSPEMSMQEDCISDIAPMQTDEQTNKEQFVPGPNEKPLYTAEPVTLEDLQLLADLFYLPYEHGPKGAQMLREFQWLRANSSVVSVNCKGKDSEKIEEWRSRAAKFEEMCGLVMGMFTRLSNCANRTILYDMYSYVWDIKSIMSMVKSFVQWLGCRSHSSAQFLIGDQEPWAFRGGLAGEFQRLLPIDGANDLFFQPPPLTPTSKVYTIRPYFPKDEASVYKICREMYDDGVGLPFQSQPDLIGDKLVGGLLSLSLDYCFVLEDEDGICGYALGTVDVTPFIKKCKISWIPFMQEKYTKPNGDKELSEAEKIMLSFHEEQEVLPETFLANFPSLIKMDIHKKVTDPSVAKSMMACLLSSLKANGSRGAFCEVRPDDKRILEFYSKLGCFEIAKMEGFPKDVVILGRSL
The assay is described as follows: OGA Enzyme Inhibition Biochemical Assay. Particulars: 1 nM OGA, 100 μM 4-MUGlcNAc (Km), pH 6.4, 90 minutes at room temperature, 10-point dose-response from 20 μM. On the procedure:
OGA Enzyme Inhibition Biochemical Assay
Recombinant full length human OGA enzyme was purchased from Origene. 4-MUGlCNAc substrate was purchased from Sigma. All other reagents were purchased from Sigma or Fisher. Assay buffer consists of the McIlvaine buffer system, pH 6.4 (0.2M Na2HPO4 mixed with 0.1M citric acid) and 0.01% BSA. Reactions consist of 1 nM OGA, 100 μM 4-MUGlcNAc (Km), and compound in a final volume of 10 μl. Reactions were incubated for 90 minutes at room temperature and quenched with 40 μl of 3M glycine, pH 10 and read on a Perkin Elmer Envision plate reader (Ex: 355 nm/Em: 460 nm). Compounds were tested with a 10-point dose-response starting from 20 μM with a 4-fold dilution. Data was fit using GraphPad Prism using a 4-parameter fit with variable slope.

Usually IC50 stands for the concentration that gives 50% inhibition.

Bounds are passed on as bounds.

Consider `COc1cncc(CC2CCCN(Cc3cnc(NC(C)=O)s3)C2)n1` (stereo not drawn) [Example 1-32, N-(5-((3-((6-methoxypyrazin-2-yl)methyl)piperidin-1-yl)methyl)thiazol-2-yl)acetamide], for which the concentration for half-maximal inhibition (IC50) is 2 nM.

As to `CC(=O)Nc1ncc(CN2CCC(Cc3ccc(F)cc3)C2)s1` (stereo not drawn) [Example 1-17, N-(5-((3-(4-fluorobenzyl)pyrrolidin-1-yl)methyl)thiazol-2-yl)acetamide], the IC50 was 180 nM.

`COc1cncc(CC2CCN(Cc3cnc(NC(C)=O)s3)C2)c1` (stereo not drawn) [Example 1-20, N-(5-((3-((5-methoxypyridin-3-yl)methyl)pyrrolidin-1-yl)methyl)thiazol-2-yl)acetamide]: the IC50 came to 69 nM.

For `CC(=O)Nc1nc(F)c(CN2CC[C@H](Cc3cc(C)ncc3Cl)C2)s1` [Example 3-30, (S)—N-(5-((3-((5-chloro-2-methylpyridin-4-yl)methyl)pyrrolidin-1-yl)methyl)-4-fluorothiazol-2-yl)acetamide], the IC50 worked out at 5.1 nM.

Turning to `CCc1cnn(CC2CCCN(Cc3cnc(NC(C)=O)s3)C2)c1` (stereo not drawn) [Example 4-2, N-(5-((3-((4-ethyl-1H-pyrazol-1-yl)methyl)piperidin-1-yl)methyl)thiazol-2-yl)acetamide], the IC50 was found to be 970 nM.

Turning to `COc1ccc(CC2CCN(Cc3cnc(NC(C)=O)s3)C2)cn1` (stereo not drawn) [Example 1-23, N-(5-((3-((6-methoxypyridin-3-yl)methyl)pyrrolidin-1-yl)methyl)thiazol-2-yl)acetamide], the IC50 amounted to 17 nM.

As for `COc1cc(C(C)C2CCN(Cc3sc(NC(C)=O)nc3F)C2)ncn1` (stereo not drawn) [Example 2-52, N-(4-fluoro-5-((3-(1-(6-methoxypyrimidin-4-yl)ethyl)pyrrolidin-1-yl)methyl)thiazol-2-yl)acetamide], the IC50 was determined as 1.7 nM.

As to `CC(=O)Nc1ncc(CN2CC[C@H](Cc3ncc(F)cn3)C2)s1` (single isomer, unassigned) [Example 2-1], the IC50 worked out at 7 nM.

Consider `CC(=O)Nc1ncc(CN2CCC(Cc3ccccn3)C2)s1` (stereo not drawn) [Example 2-15, N-(5-((3-(pyridin-2-ylmethyl)pyrrolidin-1-yl)methyl)thiazol-2-yl)acetamide], for which the IC50 was 84 nM.

Turning to `CC(=O)Nc1ncc(CN2CCC[C@@H]([C@@H](C)c3ncc(F)cn3)C2)s1` (single isomer, unassigned) [Example 2-29], the 50% inhibitory concentration (IC50) is 1 nM.

Take `CC(=O)Nc1ncc(CN2CCCC(Cc3cncs3)C2)s1` (stereo not drawn) [Example 1-37, N-(5-((3-(thiazol-5-ylmethyl)piperidin-1-yl)methyl)thiazol-2-yl)acetamide]: the IC50 is 4 nM.

Consider `CC(=O)Nc1ncc(CN2CCCC(Cc3ccccc3)C2)s1` (stereo not drawn) [Example 1-28, N-(5-((3-benzylpiperidin-1-yl)methyl)thiazol-2-yl)acetamide], for which the IC50 was 52 nM.

As for `CC(=O)Nc1ncc(CN2CCC(F)(Cc3ncc(F)cn3)C2)s1` (stereo not drawn) [Example 2-16, N-(5-((3-fluoro-3-((5-fluoropyrimidin-2-yl)methyl)pyrrolidin-1-yl)methyl)thiazol-2-yl)acetamide], the IC50 was found to be 880 nM.

In the case of `CC(=O)Nc1ncc(CN2CCCC(Cc3nc(C)cs3)C2)s1` (stereo not drawn) [Example 1-34, N-(5-((3-((4-methylthiazol-2-yl)methyl)piperidin-1-yl)methyl)thiazol-2-yl)acetamide], the IC50 worked out at 5 nM.

As for `CC(=O)Nc1ncc(CN2CCCC(Cc3noc(C)n3)C2)s1` (stereo not drawn) [Example 4-19, N-(5-((3-((5-methyl-1,2,4-oxadiazol-3-yl)methyl)piperidin-1-yl)methyl)thiazol-2-yl)acetamide], the IC50 was 9.3 nM.

Regarding `CC(=O)Nc1ncc(CN2CCCC(F)(Cc3ncc(F)cn3)C2)s1` (stereo not drawn) [Example 2-12, N-(5-((3-fluoro-3-((5-fluoropyrimidin-2-yl)methyl)piperidin-1-yl)methyl)thiazol-2-yl)acetamide], the IC50 is 240 nM.

As for `CC(=O)Nc1nc(Cl)c(CN2CC[C@H](Cc3cc(C)nc(C)c3)C2)s1` [Example 3-38, (S)—N-(4-chloro-5-((3-((2,6-dimethylpyridin-4-yl)methyl)pyrrolidin-1-yl)methyl)thiazol-2-yl)acetamide], the IC50 was determined as 150 nM.

With `COc1ccc(CC2CCCN(Cc3cnc(NC(C)=O)s3)C2)cc1` (stereo not drawn) [Example 1-4, N-(5-((3-(4-methoxybenzyl)piperidin-1-yl)methyl)thiazol-2-yl)acetamide], the IC50 was determined as 8 nM.

Regarding `CC(=O)Nc1ncc(CN2CC(Cc3ncc(F)cn3)CC[C@H]2C(F)(F)F)s1` (stereo partly drawn) [Example 2-49], the half-maximal inhibitory concentration (IC50) is above 20000 nM.

Take `CC(=O)Nc1ncc(CN2CCCC(Cn3cc(C(C)=O)cn3)C2)s1` (stereo not drawn) [Example 4-11, N-(5-((3-((4-acetyl-1H-pyrazol-1-yl)methyl)piperidin-1-yl)methyl)thiazol-2-yl)acetamide]: the half-inhibitory concentration (IC50) was found to be 15 nM.

For `CCc1cc2ncnc(CC3CCCN(Cc4cnc(NC(C)=O)s4)C3)c2s1` (stereo not drawn) [Example 1-42, N-(5-((3-((6-ethylthieno[3,2-d]pyrimidin-4-yl)methyl)piperidin-1-yl)methyl)thiazol-2-yl)acetamide], the IC50 amounted to 2 nM.

Consider `CC(=O)Nc1ncc(CN2CCCC(Cc3cc(C)ccn3)C2)s1` (stereo not drawn) [Example 1-45, N-(5-((3-((4-methylpyridin-2-yl)methyl)piperidin-1-yl)methyl)thiazol-2-yl)acetamide], for which the IC50 was determined as 24 nM.

Take `CC(=O)Nc1ncc(CN2C[C@@H](Cc3ncc(F)cn3)C[C@@H]2C(F)(F)F)s1` (single isomer, unassigned) [Example 2-46]: the IC50 is 3900 nM.

As for `CC(=O)Nc1nc(F)c(CN2CC[C@H](Cc3ncc(F)cn3)C2)s1` [Example 3-26, (R)-N-(4-fluoro-5-((3-((5-fluoropyrimidin-2-yl)methyl)pyrrolidin-1-yl)methyl)thiazol-2-yl)acetamide], the IC50 is 6.2 nM.

Turning to `CC(=O)Nc1ncc(CN2CCCC(Cc3ncc(C)s3)C2)s1` (stereo not drawn) [Example 1-35, N-(5-((3-((5-methylthiazol-2-yl)methyl)piperidin-1-yl)methyl)thiazol-2-yl)acetamide], the IC50 came to 5 nM.

With `CC(=O)Nc1ncc(CN2CCC[C@@H](Cc3ncc(F)cn3)C2)s1` [Example 2-33, N-[5-[[(3S)-3-[(5-fluoropyrimidin-2-yl)methyl]-1-piperidyl]methyl]thiazol-2-yl]acetamide], the half-inhibitory concentration (IC50) was 122 nM.

Consider `CC(=O)Nc1nc(F)c(CN2C[C@H](Cc3ncc(F)cn3)C[C@@H]2C)s1` [Example 3-40, N-(4-fluoro-5-(((2S,4S)-4-((5-fluoropyrimidin-2-yl)methyl)-2-methylpyrrolidin-1-yl)methyl)thiazol-2-yl)acetamide], for which the IC50 turned out to be 150 nM.

Take `CC(=O)Nc1nc(F)c(CN2C[C@@H](Cc3ncc(F)cn3)C[C@H]2C)s1` [Example 3-42, N-(4-fluoro-5-(((2R,4R)-4-((5-fluoropyrimidin-2-yl)methyl)-2-methylpyrrolidin-1-yl)methyl)thiazol-2-yl)acetamide]: the IC50 is below 1 nM.

Take `CC(=O)Nc1ncc(CN2C[C@H](Cc3ncc(F)cn3)C[C@@H]2C(F)(F)F)s1` (single isomer, unassigned) [Example 2-44]: the IC50 was above 20000 nM.

In the case of `CC(=O)Nc1ncc(CN2CCCC(Cn3cc(C)cn3)C2)s1` (stereo not drawn) [Example 4-10, N-(5-((3-((4-methyl-1H-pyrazol-1-yl)methyl)piperidin-1-yl)methyl)thiazol-2-yl)acetamide], the IC50 was determined as 230 nM.

Turning to `CC(=O)Nc1ncc(CN2CCCC(Cc3cncc(C(F)(F)F)c3)C2)s1` (stereo not drawn) [Example 1-30, N-(5-((3-((5-(trifluoromethyl)pyridin-3-yl)methyl)piperidin-1-yl)methyl)thiazol-2-yl)acetamide], the IC50 is 30 nM.

Take `COc1cc(C[C@@H]2CCN(Cc3sc(NC(C)=O)nc3F)C2)ncn1` [Example 3-34, (S)—N-(4-fluoro-5-((3-((6-methoxypyrimidin-4-yl)methyl)pyrrolidin-1-yl)methyl)thiazol-2-yl)acetamide]: the IC50 came to 8 nM.

With `CC(=O)Nc1ncc(CN2C[C@@H](Cc3ncc(F)cn3)C[C@H]2C(F)(F)F)s1` (single isomer, unassigned) [Example 2-45], the IC50 was determined as 130 nM.
